Experimental data as given in US5486601A, “Trisazo dye, and aqueous ink composition containing the same” (priority 1993, dated 1996).
Structures can show the parent of a compound that is named as a salt. Where two headings read alike, the source gives them in different places.

How the values were obtained:
[1] = AMES test / mutagenicity as stated in general text; conditions: dye intermediate
strain TA98 = assay: AMES test (reverse mutagenicity test), strain TA98, with and without S-9; assay type: cell-based; conditions: TA98, with and without S9, 20 to 5000 μg/plate
Procedure: (§1) Regarding specimen solutions containing the trisazo compounds (dyes) of the present invention obtained in Examples 1 to 9 and dyes of Comparative Examples 1 to 3, respectively, the total number of the mutant colony was determined using the strain TA98. When the resulting magnification is not more than 2, it is evaluated as "negative". On the other hand, when the resulting magnification is not less than 2, it is evaluated as "positive".
(§2) In Table 1, the modification in case that no drug-metabolizing active enzyme S-9 is added is shown in the column "-" and the modification in case that a drug-metabolizing active enzyme S-9 is added is shown in the column "+".

[2] = background statement on known dyes; cited from earlier work
[3] = Solubility of dye (Na salt) in water; assay type: physicochemical
Procedure: Evaluation Method of Solubility of Dye
A Na salt (2 g) of the resulting dye was dissolved in water (10 g), and the dye solution was filtered and concentrated/dried to determine a solubility (g of dye/100 g of water) of the dye.

[4] = AMES test (reverse mutagenicity test), strain TA98, with and without S-9; assay type: cell-based; conditions: read-out: magnification of the total number of the mutant colony to the control
Procedure: as §1, §2

[5] = Stability of tetrazonium salt; assay type: physicochemical
[6] = s9, TA98, with S9, 313 μg/plate
[7] = s9, TA98, with S9, 1250 μg/plate
[8] = s9, TA98, with S9, 5000 μg/plate
[9] = s9, TA98, without S9, 20 μg/plate
[10] = s9, TA98, without S9, 78 μg/plate
[11] = s9, TA98, without S9, 313 μg/plate
[12] = s9, TA98, without S9, 1250 μg/plate
[13] = s9, TA98, without S9, 5000 μg/plate

Row | Compound | mutagenicity [1] | AMES Evaluation (strain TA98) | results of AMES test [2] | Solubility Dye(g)/water (100 g) [3] | Solubility Evaluation [3] | fold induction ([4]; s9, TA98, with S9, 20 μg/plate) | fold induction ([4]; s9, TA98, with S9, 78 μg/plate) | fold induction [4, 6] | fold induction [4, 7] | fold induction [4, 8] | fold induction [4, 9] | fold induction [4, 10] | fold induction [4, 11] | fold induction [4, 12] | fold induction [4, 13] | stability of tetrazonium salt [5]
1 | Nc1ccc(C2(c3ccc(N)cc3)CCCCC2)cc1 [1,1-bis(4-aminophenyl)cyclohexane] | negative | – | – | – | – | – | – | – | – | – | – | – | – | – | – | –
2 | Nc1ccc(N=Nc2ccc(N=Nc3c(S(=O)(=O)[O-])cc4cc(S(=O)(=O)[O-])c(N=Nc5ccc(N=Nc6ccc(N)cc6N)cc5)c(O)c4c3N)cc2)c(N)c1.[Na+].[Na+] [Comparative Example 1, C.I. Direct Black 19, reference compound] | – | Positive (when the resulting magnification is not less than 2, it is evaluated as "positive") | false positive or positive | 20 g of dye/100 g of water | .circleincircle. (solubility is not less than 15) | – | – | – | – | – | – | – | – | – | – | –
3 | Cc1cc(-c2ccc(N=Nc3c(S(=O)(=O)[O-])cc4cc(S(=O)(=O)[O-])c(N=Nc5ccccc5)c(O)c4c3N)c(C)c2)ccc1N=Nc1ccc(N)cc1N.[Na+].[Na+] [Comparative Example 2, C.I. Direct Black 154, reference compound] | – | Positive (when the resulting magnification is not less than 2, it is evaluated as "positive") | false positive or positive | 20 g of dye/100 g of water | .circleincircle. (solubility is not less than 15) | – | – | – | – | – | – | – | – | – | – | –
4 | CCCCc1ccc(N=Nc2c(S(=O)(=O)O)cc3cc(S(=O)(=O)O)c(N=Nc4ccc(C5(c6ccc(N=Nc7ccc(N)cc7O)cc6)CCCCC5)cc4)c(N)c3c2O)cc1 [Example 1] | – | Negative (When the resulting magnification is not more than 2, it is evaluated as "negative") | – | 12 g of dye/100 g of water | .smallcircle. (solubility is within a range from 10 to 15) | 1.21 | 1.03 | 0.9 | 0.63 | 0.69 | 0.91 | 0.86 | 0.91 | 0.95 | 0.5 | –
5 | CCCCc1ccc(N=Nc2c(S(=O)(=O)O)cc3cc(S(=O)(=O)O)c(N=Nc4ccc(C5(c6ccc(N=Nc7ccc(O)cc7O)cc6)CCCCC5)cc4)c(N)c3c2O)cc1 [Example 2] | – | Negative (When the resulting magnification is not more than 2, it is evaluated as "negative") | – | 15 g of dye/100 g of water | .circleincircle. (solubility is not less than 15) | 1.09 | 1.09 | 0.55 | 0.55 | 0.42 | 0.78 | 0.7 | 0.61 | 0.39 | 0.3 | –
6 | CCC(C)c1ccc(N=Nc2c(S(=O)(=O)O)cc3cc(S(=O)(=O)O)c(N=Nc4ccc(C5(c6ccc(N=Nc7ccc(N)cc7O)cc6)CCCCC5)cc4)c(N)c3c2O)cc1 (stereo not shown) [Example 3] | – | Negative (When the resulting magnification is not more than 2, it is evaluated as "negative") | – | 12 g of dye/100 g of water | .smallcircle. (solubility is within a range from 10 to 15) | 0.81 | 1.31 | 1 | 0.56 | 0.69 | 0.81 | 0.5 | 0.5 | 0.5 | 0.69 | –
7 | Nc1ccc(N=Nc2ccc(C3(c4ccc(N=Nc5c(S(=O)(=O)O)cc6cc(S(=O)(=O)O)c(N=Nc7ccccc7)c(O)c6c5N)cc4)CCCCC3)cc2)c(O)c1 [Example 4] | – | Negative (When the resulting magnification is not more than 2, it is evaluated as "negative") | – | 15 g of dye/100 g of water | .circleincircle. (solubility is not less than 15) | 1.44 | 1.4 | 1.08 | 1.16 | 0.96 | 1 | 0.93 | 1.07 | 0.87 | 0.93 | –
8 | CC(C)c1ccc(N=Nc2c(S(=O)(=O)O)cc3cc(S(=O)(=O)O)c(N=Nc4ccc(C5(c6ccc(N=Nc7ccc(N)cc7O)cc6)CCCCC5)cc4)c(N)c3c2O)cc1 [Example 5] | – | Negative (When the resulting magnification is not more than 2, it is evaluated as "negative") | – | 13 g of dye/100 g of water | .smallcircle. (solubility is within a range from 10 to 15) | 1.77 | 1.27 | 1.41 | 1.45 | 1.05 | 0.9 | 0.76 | 1.07 | 0.83 | 0.48 | –
9 | Cc1ccc(N=Nc2c(S(=O)(=O)O)cc3cc(S(=O)(=O)O)c(N=Nc4ccc(C5(c6ccc(N=Nc7ccc(N)cc7O)cc6)CCCCC5)cc4)c(N)c3c2O)cc1 [Example 6] | – | Negative (When the resulting magnification is not more than 2, it is evaluated as "negative") | – | 15 g of dye/100 g of water | .circleincircle. (solubility is not less than 15) | 1.38 | 1.43 | 0.95 | 0.68 | 0.65 | 1.19 | 1.22 | 1.48 | 1.3 | 1.15 | –
10 | CCCCc1ccc(N=Nc2c(S(=O)(=O)O)cc3cc(S(=O)(=O)O)c(N=Nc4ccc(C5(c6ccc(N=Nc7ccc(N(CC)CC)cc7C)cc6)CCCCC5)cc4)c(N)c3c2O)cc1 [Example 7] | – | Negative (When the resulting magnification is not more than 2, it is evaluated as "negative") | – | 12 g of dye/100 g of water | .smallcircle. (solubility is within a range from 10 to 15) | 1.03 | 0.92 | 0.81 | 1.08 | 1.03 | 1.05 | 1.1 | 0.9 | 0.62 | 1.1 | –
11 | CCCCc1ccc(N=Nc2c(S(=O)(=O)O)cc3cc(S(=O)(=O)O)c(N=Nc4ccc(C5(c6ccc(N=Nc7ccc(N(C)C)cc7C(=O)O)cc6)CCCCC5)cc4)c(N)c3c2O)cc1 [Example 8] | – | Negative (When the resulting magnification is not more than 2, it is evaluated as "negative") | – | 15 g of dye/100 g of water | .circleincircle. (solubility is not less than 15) | 1.13 | 0.94 | 1.06 | 0.53 | 0.59 | 0.76 | 0.86 | 0.86 | 0.76 | 0.71 | –
12 | CCCCc1ccc(N=Nc2c(S(=O)(=O)O)cc3cc(S(=O)(=O)O)c(N=Nc4ccc(C5(c6ccc(N=Nc7ccc(N(C)C)cc7O)cc6)CCCCC5)cc4)c(N)c3c2O)cc1 [Example 9] | – | Negative (When the resulting magnification is not more than 2, it is evaluated as "negative") | – | 12 g of dye/100 g of water | .smallcircle. (solubility is within a range from 10 to 15) | 1.15 | 1.37 | 0.77 | 0.41 | 0.59 | 0.77 | 0.73 | 0.58 | 0.38 | 0.54 | –
13 | N#[N+]c1ccc(C2(c3ccc([N+]#N)cc3)CCCCC2)cc1 [tetrazonium salt, tetrazonium salt of 1,1-bis(4-aminophenyl)cyclohexane] | – | – | – | – | – | – | – | – | – | – | – | – | – | – | – | comparatively stable
14 | C.I. Direct Black 168 [Comparative Example 3, reference compound] | – | – | false positive or positive | 20 g of dye/100 g of water | .circleincircle. (solubility is not less than 15) | – | – | – | – | – | – | – | – | – | – | –
